Measured values as given in ChEMBL document CHEMBL2202968, “2-Styrylindolium based fluorescent probes visualize neurofibrillary tangles in Alzheimer's disease” (Bioorg Med Chem Lett, 2012).
Active and inactive are the calls of the source. The calls are words filed in the database; no cut-off is given here.

How the values were obtained:
[1] = Displacement of thiazine red R from amyloid beta (1 to 40) aggregate after 30 mins by fluorimetric analysis
[2] = molecular target: T1, Microtubule-associated protein tau (Homo sapiens, UniProt P10636); test: Displacement of thiazine red R from human Tau aggregate expressed in Escherichia coli after 30 mins by fluorimetric analysis
T1 sequence (P10636 whole entry): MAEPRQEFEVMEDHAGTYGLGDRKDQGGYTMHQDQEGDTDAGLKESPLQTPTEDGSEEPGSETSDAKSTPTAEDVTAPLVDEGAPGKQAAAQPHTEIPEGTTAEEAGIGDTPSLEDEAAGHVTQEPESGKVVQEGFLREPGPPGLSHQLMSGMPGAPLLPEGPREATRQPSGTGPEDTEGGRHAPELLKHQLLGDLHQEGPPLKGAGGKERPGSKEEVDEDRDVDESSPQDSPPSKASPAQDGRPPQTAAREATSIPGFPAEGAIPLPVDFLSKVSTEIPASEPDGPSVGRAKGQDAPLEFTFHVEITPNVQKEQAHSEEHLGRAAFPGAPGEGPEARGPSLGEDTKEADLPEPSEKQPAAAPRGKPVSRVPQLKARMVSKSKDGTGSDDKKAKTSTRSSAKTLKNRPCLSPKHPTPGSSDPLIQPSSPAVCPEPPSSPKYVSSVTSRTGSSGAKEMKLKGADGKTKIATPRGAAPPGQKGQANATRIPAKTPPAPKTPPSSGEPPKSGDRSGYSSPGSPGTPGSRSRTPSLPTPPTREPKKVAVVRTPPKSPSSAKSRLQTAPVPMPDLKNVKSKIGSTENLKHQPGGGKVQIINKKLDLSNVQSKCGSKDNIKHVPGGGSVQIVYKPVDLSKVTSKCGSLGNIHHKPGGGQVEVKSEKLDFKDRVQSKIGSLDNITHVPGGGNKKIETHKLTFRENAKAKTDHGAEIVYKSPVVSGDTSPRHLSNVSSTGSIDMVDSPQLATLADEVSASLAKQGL

[3] = molecular target: Amyloid-beta precursor protein (Homo sapiens) (UniProt P05067); test: Binding affinity to amyloid beta aggregates in Alzheimer patient hippocampus by fluorescence microscopy; type: tissue-based
Chain of Amyloid-beta precursor protein (Homo sapiens) (P05067 whole entry): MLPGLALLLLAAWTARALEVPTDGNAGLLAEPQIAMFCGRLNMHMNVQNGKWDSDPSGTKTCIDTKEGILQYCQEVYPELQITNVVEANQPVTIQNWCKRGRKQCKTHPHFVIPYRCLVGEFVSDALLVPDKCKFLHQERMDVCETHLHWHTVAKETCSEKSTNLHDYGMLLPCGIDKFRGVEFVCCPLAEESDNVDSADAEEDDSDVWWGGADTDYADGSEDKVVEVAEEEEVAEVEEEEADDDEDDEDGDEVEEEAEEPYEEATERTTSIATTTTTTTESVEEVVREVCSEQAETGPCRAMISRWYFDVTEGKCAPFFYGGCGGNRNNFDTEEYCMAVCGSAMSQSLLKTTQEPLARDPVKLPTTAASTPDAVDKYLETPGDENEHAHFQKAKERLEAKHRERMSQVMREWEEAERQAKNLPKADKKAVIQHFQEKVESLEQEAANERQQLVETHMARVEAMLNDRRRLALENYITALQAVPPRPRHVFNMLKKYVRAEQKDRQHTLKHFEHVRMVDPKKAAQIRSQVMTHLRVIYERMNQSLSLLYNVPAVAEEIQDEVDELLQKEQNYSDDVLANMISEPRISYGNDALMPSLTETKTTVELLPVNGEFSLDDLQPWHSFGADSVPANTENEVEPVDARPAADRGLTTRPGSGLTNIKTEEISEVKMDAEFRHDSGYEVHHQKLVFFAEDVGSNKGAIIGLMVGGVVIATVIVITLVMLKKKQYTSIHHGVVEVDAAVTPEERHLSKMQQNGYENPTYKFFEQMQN

[4] = Aqueous solubility of the compound; type: physicochemical; conditions: buffer
[5] = molecular target: T1, Microtubule-associated protein tau; test: Binding affinity to Tau aggregates in Alzheimer patient hippocampus by fluorescence microscopy; type: tissue-based
[6] = organism: Danio rerio; test: Toxicity against Zebra fish embryo assessed as lesions up to 10 uM at 24 hrs post-fertilization by microscopic analysis; type: organism-based; conditions: zebrafish, in vivo
[7] = system: HepG2; test: Cytotoxicity against human HepG2 cells after 24 hrs; type: cell-based; conditions: HepG2, 24 h
[8] = organism: Danio rerio; test: Toxicity against juvenile Zebra fish assessed as lesions in yolk sac up to 10 uM at 72 hrs post-fertilization by microscopic analysis; type: organism-based; conditions: zebrafish, in vivo
[9] = Binding affinity to amyloid beta (1 to 40) aggregate

Row | IC50 [1] [µM] | IC50 [2] [µM] | Activity [3] | solubility [4] [µg/mL] | Activity [5] | Ki [9] [µM] | SMILES | Activity [6] | EC50 [7] [µM] | Activity [8]
1 | > 10 | > 10 | – | – | – | – | CNc1ccc(-c2ccc3ccccc3n2)cc1 | – | – | –
2 | – | – | inactive | > 500 | Active | – | COc1ccc(/C=C/C2=[N+](C)c3ccccc3C2(C)C)cc1.[I-] | Non-toxic | 10.9 | –
3 | 0.00137 | 0.00141 | inactive | > 100 | Active | – | CCCC[N+]1=C(/C=C/c2ccc(N(CC)CC)cc2)C(C)(C)c2ccccc21.[I-] | Non-toxic | 0.93 | Toxic
4 | – | – | inactive | > 500 | Active | – | CN1CCN(c2ccc(/C=C/C3=[N+](C)c4ccccc4C3(C)C)cc2)CC1.[I-] | – | – | –
5 | 1.47 | 1.63 | – | – | – | – | CC(=C(C#N)C#N)c1ccc2cc(N(C)CCF)ccc2c1 | – | – | –
6 | – | 0.0051 | inactive | > 500 | Active | – | C[N+]1=C(/C=C/c2ccc(N3CCCC3)cc2)C(C)(C)c2ccccc21.[I-] | Non-toxic | 8.31 | –
7 | – | 3.26 | – | – | – | – | CNc1ccc(-c2nc3ccc(O)cc3s2)cc1 [PITTSBURGH COMPOUND B UNLABELLED] | – | – | –
8 | – | – | inactive | > 500 | Active | – | CCN(CC)c1ccc(/C=C/C2=[N+](C)c3ccccc3C2(C)C)cc1.[I-] | Non-toxic | 8.57 | –
9 | 0.14 | – | – | – | – | 0.0268 | COc1cc(/C=C/c2ccc(O)cc2)ccc1/C=C/c1ccc(O)cc1 | – | – | –
10 | – | – | inactive | > 500 | Active | – | C[N+]1=C(/C=C/c2ccc(O)cc2)C(C)(C)c2ccccc21.[I-] | – | – | –
